What was measured:
HaCaT cells = experiment: MTT assay, HaCaT normal cells; assay type: cell-based; conditions: HaCaT human immortal keratinocyte (normal cells), 24 h, mean SD
Procedure: (§1) Colon cancer (SW480), breast adenocarcinoma (MDA-MB-231), lung carcinoma (A-549), prostate cancer (PC3), and immortal keratinocyte (HaCaT) cell lines of human origin were acquired from the American Type Culture Collection (ATCC). The recommended culture media and protocols provided by ATCC were as follows: SW480 were cultured in Minimum Essential Medium (MEM), MDA-MB-231, A-549, and HaCaT cells were cultured in Dulbecco’s Modified Eagle Medium (DMEM), while PC3 was cultured in Roswell Park Memorial Institute Medium (RPMI). The culture media were supplemented with 10% fetal bovine serum (FBS), penicillin (100 U/mL), and streptomycin (100 μg/mL). Cells were maintained in a humidified incubator at 37 °C with 5% CO2. Passaging was carried out upon reaching 80–90% confluence using 0.25% trypsin (Gibco Life Technologies, New York, NY, USA) treatment prior to experimentation.
(§2) Cell viability was assessed utilizing the MTT assay, which relies on the conversion of 3-(4,5-dimethylthiazol-2-yl)-2,5-diphenyltetrazolium bromide salt (MTT) to formazan crystals by mitochondrial dehydrogenases in viable cells. Initially, cells were plated in 96-well plates at a density of 1 × 10^4 cells per well and allowed to attach for 24 h at 37 °C in a CO2 incubator. Subsequently, the culture medium was replaced with fresh medium containing various concentrations of the test compounds (ranging from 1 to 100 μM), and cells were further cultured for 24 h at 37 °C in a CO2 incubator. Control wells were left untreated for comparison. After the incubation period, MTT solution (0.5 mg/mL in serum-free medium) was added to each well, followed by a 4-h incubation at 37 °C in a CO2 incubator. The medium was then aspirated, and the formazan crystals were dissolved by adding a mixture of isopropanol and DMSO (1:1). The absorbance of the resulting solution was measured at 570 nm using a UVM 340 reader (ASYS Hitech GmbH, Seekirchen am Wallersee, Austria). IC50 values were determined using GraphPad software (GraphPad Prism 8 Software).

SW620 cells = experiment: MTT assay, SW620 cells; assay type: cell-based, human; conditions: for IC50: SW620 human metastatic colon cancer, MTT, 24 h, mean SD
A-549 cells = experiment: MTT assay, A-549 cells; assay type: cell-based, human; conditions: for IC50: A-549 human lung carcinoma, MTT, 24 h, mean SD
Procedure: as §1, §2

MDA-MB-231 cells = experiment: MTT assay, MDA-MB-231 cells; assay type: cell-based, human; conditions: for IC50: MDA-MB-231 human breast adenocarcinoma, MTT, 24 h, mean SD
Procedure: as §1, §2

PC3 cells = experiment: MTT assay, PC3 cells; assay type: cell-based, human; conditions: for IC50: PC-3, PC3 human metastatic prostate cancer, MTT, 24 h, mean SD
Procedure: as §1, §2

| IC50 (MDA-MB-231 cells) [µM] | melting point [°C] | IC50 (SW620 cells; SW-620) [µM] | IC50 (A-549 cells; A549) [µM] | IC50 (PC3 cells) [µM] | SMILES | IC50 (HaCaT cells) [µM] | IC50 (SW620 cells) [µM] | IC50 (A-549 cells) [µM] | SI (Selectivity Index) (A-549 cells; IC50 for normal cell line (HaCaT)/IC50 A-549) | SI (Selectivity Index) (MDA-MB-231 cells; IC50 for normal cell line (HaCaT)/IC50 MDA-MB-231) | SI (Selectivity Index) (SW620 cells; IC50 for normal cell line (HaCaT)/IC50 SW620) | SI (Selectivity Index) (PC3 cells; IC50 for normal cell line (HaCaT)/IC50 PC3) |
| --- | --- | --- | --- | --- | --- | --- | --- | --- | --- | --- | --- | --- |
| > 100 | 236 to 238 | 86.3 ± 3.81 | > 100 | 70.4 ± 2.76 | COc1ccc(O)c(C=NNC(=O)c2nc([N+](=O)[O-])cn2C)c1 [Compound 31, N’-[(2-hydroxy-5-methoxyphenyl)methylidene]-1-methyl-4-nitro-1H-imidazole-2-carbohydrazide] | > 100 | – | – | 1 | 1 | – | – |
| > 100 | 214 to 216 | 64.2 ± 6.88 | > 100 | 70.2 ± 4.2 | COc1ccc(C=NNC(=O)c2nc([N+](=O)[O-])cn2C)c(O)c1 [Compound 30, N’-[(2-hydroxy-4-methoxyphenyl)methylidene]-1-methyl-4-nitro-1H-imidazole-2-carbohydrazide] | 97 ± 5.48 | – | – | – | – | 1.5 | 1.4 |

| SMILES | IC50 (MDA-MB-231 cells) [µM] | melting point [°C] | IC50 (SW620 cells; SW-620) [µM] | IC50 (A-549 cells; A549) [µM] | IC50 (PC3 cells) [µM] | IC50 (HaCaT cells) [µM] | IC50 (SW620 cells) [µM] | IC50 (A-549 cells) [µM] | SI (Selectivity Index) (A-549 cells; IC50 for normal cell line (HaCaT)/IC50 A-549) | SI (Selectivity Index) (MDA-MB-231 cells; IC50 for normal cell line (HaCaT)/IC50 MDA-MB-231) | SI (Selectivity Index) (SW620 cells; IC50 for normal cell line (HaCaT)/IC50 SW620) | SI (Selectivity Index) (PC3 cells; IC50 for normal cell line (HaCaT)/IC50 PC3) |
| --- | --- | --- | --- | --- | --- | --- | --- | --- | --- | --- | --- | --- |
| N.N.[Cl][Pt][Cl] [Cisplatin, cisplatin] | 7.8 ± 0.98 | – | – | – | – | 6.3 ± 0.7 | 6.7 ± 1.1 | 3.2 ± 1.24 | – | – | – | – |

Source: PMC11243693, “Synthesis and Biological Evaluation of New Compounds with Nitroimidazole Moiety” (Molecules, 2024)
